Assay results: patent US20170188607A1, “SOLUBILIZATION OF A SWEET MODULATOR AND FLAVOR” (Firmenich SA, priority 2014, published 2017)

Experiment: Crystallization onset of supersaturated solution stirred at 20° C., followed in a Crystalline PV device with CCD cameras
Type: physicochemical
Protocol: (§1) A concentrated solution 2 of (S)-1-(3-(((4-amino-2,2-dioxido-1H-benzo[c][1,2,6]thiadiazin-5-yl)oxy)methyl)piperidin-1-yl)-3-methylbutan-1-one at 1% (w/w) (10000 ppm) was prepared in water. The pH was adjusted to 11 using NaOH to form the (S)-1-(3-(((4-amino-2,2-dioxido-1H-benzo[c][1,2,6]thiadiazin-5-yl)oxy)methyl)piperidin-1-yl)-3-methylbutan-1-one sodium salt, and a homogeneous solution was obtained. Next, a syrup was prepared by mixing an aqueous solution of HFCS, citric acid and deionized water. […] of 100 ppm of (S)-1-(3-(((4-amino-2,2-dioxido-1H-benzo[c][1,2,6]thiadiazin-5-yl)oxy)methyl)piperidin-1-yl)-3-methylbutan-1-one, i.e. about 15 times above the intrinsic solubility of the compound at 20° C. The sample was stirred at 20° C. and crystallization was followed in a Crystalline PV device equipped with CCD cameras. Crystallization started after about 530 minutes.
as §1, with “acid, HydroxyPropyl Cellulose (HPC) 100k” for “acid”, “deionized water. The final syrup contained 43% fructose, 1% citric acid, 0.05% HPC and 55.95%” for “deionized”, “cameras.” for “cameras. Crystallization started after about 530 minutes.”
A concentrated solution 2 of (S)-1-(3-(((4-amino-2,2-dioxido-1H-benzo[c][1,2,6]thiadiazin-5-yl)oxy)methyl)piperidin-1-yl)-3-methylbutan-1-one at 1% (w/w) (10000 ppm) was prepared in water. The pH was adjusted to 11 using NaOH to form the (S)-1-(3-(((4-amino-2,2-dioxido-1H-benzo[c][1,2,6]thiadiazin-5-yl)oxy)methyl)piperidin-1-yl)-3-methylbutan-1-one sodium salt, and a homogeneous solution was obtained. Next, a citric acid buffer solution was prepared by mixing 50 mM citric acid in deionised water (pH=2.8). An aliquot of solution 2 was diluted 100 times with the buffer solution to yield a final concentration of 100 ppm of (S)-1-(3-(((4-amino-2,2-dioxido-1H-benzo[c][1,2,6]thiadiazin-5-yl)oxy)methyl)piperidin-1-yl)-3-methylbutan-1-one, i.e. about 15 times above the intrinsic solubility of the compound at 20° C. The sample was stirred at 20° C. and crystallization was followed in a Crystalline PV device equipped with CCD cameras.
A concentrated solution 2 of (S)-1-(3-(((4-amino-2,2-dioxido-1H-benzo[c][1,2,6]thiadiazin-5-yl)oxy)methyl)piperidin-1-yl)-3-methylbutan-1-one at 1% (w/w) (10000 ppm) was prepared in water. The pH was adjusted to 11 using NaOH to form the (S)-1-(3-(((4-amino-2,2-dioxido-1H-benzo[c][1,2,6]thiadiazin-5-yl)oxy)methyl)piperidin-1-yl)-3-methylbutan-1-one sodium salt, and a homogeneous solution was obtained. Next, a citric acid buffer solution was prepared by mixing 50 mM citric acid and carboxymethyl cellulose (CMC) in deionised water (pH=2.8). The final water solution contained 50 mM citric acid and 0.05% CMC. […]

time until crystallization started (Example 5 (comparative): 100 ppm, syrup 43 Brix (43% fructose, 1% citric acid), no polymer): about 530 minutes | time until first crystals were observed (Example 6: 100 ppm, syrup 43 Brix with 0.05% HPC 100k): about 3520 minutes | time until first crystals were observed (Example 7 (comparative): 100 ppm, 50 mM citric acid buffer pH 2.8, no polymer): about 166 minutes | time until first crystals were observed (Example 8: 100 ppm, 50 mM citric acid buffer pH 2.8 with 0.05% CMC): about 466 minutes
Structure (SMILES): CC(C)CC(=O)N1CCC[C@H](COc2cccc3c2C(N)=NS(=O)(=O)N3)C1 [(S)-1-(3-(((4-amino-2,2-dioxido-1H-benzo[c][1,2,6]thiadiazin-5-yl)oxy)methyl)piperidin-1-yl)-3-methylbutan-1-one]
crystallization observation (Example 9: 100 ppm, syrup 43 Brix with 0.05% HPMC 100k): No crystallization was observed after seven days
